Results taken from the CheMixHub viscosity set.
± gives the uncertainty stated by the source.

Experiment: xn = mol fraction of the nth substance listed

CCCCCCC(C)O (stereo not drawn) + c1ccccc1
viscosity [mPa·s], 101 kPa
Details	298.15 K	303.15 K
x2 = 0.0555	5.871 ± 0.031	4.689 ± 0.026
x2 = 0.1239	5.076 ± 0.028	4.101 ± 0.023
x2 = 0.1912	4.353 ± 0.024	3.577 ± 0.02
x2 = 0.2386	3.886 ± 0.022	3.224 ± 0.018
x2 = 0.3153	3.181 ± 0.018	2.703 ± 0.016
x2 = 0.4353	2.241 ± 0.014	2.018 ± 0.013
x2 = 0.4865	1.923 ± 0.012	1.764 ± 0.011
x2 = 0.6072	1.318 ± 0.01	1.264 ± 0.009
x2 = 0.6941	1.008 ± 0.008	0.986 ± 0.008
x2 = 0.7432	0.876 ± 0.008	0.876 ± 0.008
x2 = 0.8011	0.761 ± 0.008	0.754 ± 0.008
x2 = 0.8599	0.693 ± 0.007	0.667 ± 0.007
x2 = 0.909	0.655 ± 0.007	0.608 ± 0.007
x2 = 0.9541	0.637 ± 0.007	0.58 ± 0.007

COCCn1cc[n+](C)c1.C[C@@H](O)[C@H](N)C(=O)[O-] + O
100 kPa, x2 = 0.6192
Details	viscosity [mPa·s]
298.15 K	766.5 ± 71
303.15 K	499.5 ± 39

c1c[nH]cn1 + O
viscosity [mPa·s], 100 kPa
Details	x1 = 0.0286	x1 = 0.0621	x1 = 0.102	x1 = 0.15	x1 = 0.209
298.15 K	1.058 ± 0.043	1.242 ± 0.05	1.47 ± 0.06	1.737 ± 0.071	2.14 ± 0.09
303.15 K	0.944 ± 0.038	1.103 ± 0.045	1.301 ± 0.054	1.541 ± 0.064	1.881 ± 0.078
313.15 K	0.771 ± 0.031	0.892 ± 0.036	1.043 ± 0.043	1.261 ± 0.052	1.543 ± 0.064
323.15 K	0.647 ± 0.026	0.742 ± 0.03	0.862 ± 0.036	1.034 ± 0.043	1.254 ± 0.052

c1c[nH]cn1 + CC(=O)O
101 kPa, x1 = 0.5
Details	viscosity [mPa·s]
303.15 K	54 ± 10
323.15 K	20

c1ccncc1 + CC(O)CO
101 kPa
Details	viscosity [mPa·s]
293.15 K, x1 = 0.2999	15.55 ± 0.07
303.15 K, x1 = 0.8	1.425 ± 0.0099
308.15 K, x1 = 0.7001	1.795 ± 0.011
318.15 K, x1 = 0.4	3.855 ± 0.018

CC(O)CCO (stereo not drawn) + CN(C)C=O
308.15 K, 101 kPa
Details	viscosity [mPa·s]
x1 = 0.0531	0.762 ± 0.02
x1 = 0.1	0.87 ± 0.022
x1 = 0.1985	1.178 ± 0.029
x1 = 0.3069	1.688 ± 0.04
x1 = 0.4018	2.399 ± 0.056
x1 = 0.4993	3.462 ± 0.079
x1 = 0.6107	6.621 ± 0.14
x1 = 0.6844	9.795 ± 0.19
x1 = 0.7882	17.12 ± 0.31
x1 = 0.8916	28.94 ± 0.5
x1 = 0.9544	38.83 ± 0.67

c1cn[nH]c1 + c1ccccc1
viscosity [mPa·s], 101 kPa
Details	x1 = 0.02244	x1 = 0.04519	x1 = 0.05005	x1 = 0.1006
303.15 K	0.577 ± 0.021	0.597 ± 0.022	0.594 ± 0.022	0.627 ± 0.023
323.15 K	0.449 ± 0.018	0.46 ± 0.019	0.462 ± 0.019	–

c1ccncc1 + CO
298 K, 101.3 kPa
Details	viscosity [mPa·s]
x2 = 0.1249	0.85 ± 0.012
x2 = 0.2338	0.82 ± 0.011
x2 = 0.4192	0.763 ± 0.011
x2 = 0.5695	0.714 ± 0.01
x2 = 0.694	0.67 ± 0.009
x2 = 0.7987	0.631 ± 0.009
x2 = 0.8881	0.596 ± 0.009
x2 = 0.9652	0.565 ± 0.008

c1ccncc1 + Cc1ccc(C)cc1
viscosity [mPa·s], 101 kPa
Details	x2 = 0.0992	x2 = 0.1993	x2 = 0.2987	x2 = 0.3993	x2 = 0.4949	x2 = 0.6001	x2 = 0.6997	x2 = 0.7994	x2 = 0.8981
293.15 K	0.8699 ± 0.012	0.8193 ± 0.012	0.7862 ± 0.011	0.7311 ± 0.011	0.6964 ± 0.01	0.6582 ± 0.0098	0.6345 ± 0.0095	0.6152 ± 0.0093	0.5919 ± 0.009
303.15 K	0.7603 ± 0.011	0.7165 ± 0.01	0.6902 ± 0.01	0.6422 ± 0.0096	0.6139 ± 0.0093	0.5868 ± 0.009	0.5656 ± 0.0087	0.5475 ± 0.0085	0.5316 ± 0.0083
313.15 K	0.6704 ± 0.01	0.6302 ± 0.0095	0.6051 ± 0.0092	0.565 ± 0.0087	0.5399 ± 0.0084	0.5172 ± 0.0082	0.4986 ± 0.0079	0.4819 ± 0.0078	0.4686 ± 0.0076
323.15 K	0.5894 ± 0.009	0.5534 ± 0.0086	0.5296 ± 0.0083	0.496 ± 0.0079	0.4742 ± 0.0077	0.4548 ± 0.0075	0.4385 ± 0.0073	0.4238 ± 0.0071	0.4123 ± 0.007

Cc1cc[n+](CCCO)cc1.[Cl-] + O
viscosity [mPa·s], 100 kPa
Details	x1 = 0.001799	x1 = 0.00269	x1 = 0.003585	x1 = 0.005375	x1 = 0.007144	x1 = 0.008904
293.15 K	1.067 ± 0.022	1.092 ± 0.023	1.116 ± 0.023	1.161 ± 0.024	1.204 ± 0.025	1.244 ± 0.026
298.15 K	0.942 ± 0.02	0.963 ± 0.02	0.984 ± 0.021	1.022 ± 0.021	1.059 ± 0.022	1.094 ± 0.023
303.15 K	0.84 ± 0.018	0.859 ± 0.018	0.876 ± 0.018	0.911 ± 0.019	0.943 ± 0.02	0.974 ± 0.02
308.15 K	0.756 ± 0.016	0.772 ± 0.016	0.787 ± 0.016	0.818 ± 0.017	0.847 ± 0.018	0.875 ± 0.018
313.15 K	0.685 ± 0.014	0.699 ± 0.015	0.713 ± 0.015	0.741 ± 0.016	0.767 ± 0.016	0.792 ± 0.017
